Measured values reported in patent US9612238B2 (priority 2011, dated 2017).
“Also recorded” adds a separate entry of the source.

Key:
[1] = test system: cell surface PrP on LD9 cells; assay type: cell-based; settings: 24 hours
cell surface PrP = settings: 1 μg/ml
[2] = test system: RML scrapie-infected PK1 cells; assay type: cell-based; settings: 1 μg/ml PIPLC, 26 hours
[3] = test system: cell surface PrP on N2a cells; assay type: cell-based
RML prions = assay type: cell-based; settings: for rebound of infectivity after treatment cessation (RML): 18 days post-infection, 6 days after treatment cessation; for infection of PK1 neuroblastoma cells by RML prions (PrPSc western blot): pretreated 3 days, treated 12 days after infection, 9 and 18 days post-infection
22L prions = assay type: cell-based; settings: for rebound of infectivity after treatment cessation (22L): 18 days post-infection, 6 days after treatment cessation; for infection of PK1 neuroblastoma cells by 22L prions (PrPSc western blot): pretreated 3 days, treated 12 days after infection, 9 and 18 days post-infection

Question: With `C[C@H]1CCC/C=C/[C@@H]2C[C@H](O)C[C@H]2[C@H](O)/C=C/C(=O)O1` [BFA, Brefeldine A] as the compound, how does the “PrP expression, percentage of the DMSO control” value ([1]; 384-well screening plates) read?
Answer: 0%

Question: And the “toxicity to LD9 cells (cell viability, CELLTITER-GLO)” value (LD9 cells)?
Answer: none of the tested doses of BFA were toxic

Question: For “phosphatidylinositol phospholipase C [PIPLC]”, which “cell surface PrP removed” value (cell surface PrP) is on record?
Answer: approximately 50%

Question: What about the “RI200 (reciprocal of the cell number required to give 200 spots)” value [2] of the same compound?
Answer: 5×10^−4

Question: What about the inhibition of infection ([2]; from RI200 values) of the same compound?
Answer: 85%

Question: `CC[C@@H](C(=O)[C@@H](C)[C@@H](O)[C@H](C)CCc1ccc(C)c(O)c1C(=O)O)[C@H]1O[C@](CC)([C@H]2CC[C@](O)(CC)[C@H](C)O2)C[C@@H]1C` [Lasalocid sodium] was tested. Which “reduction of cell surface PrP, confirmation by secondary screening” value (“reduction of cell surface PrP” for short) [3] did it give?
Answer: confirmed; also recorded: active

Question: Which “reduction of cell surface PrP” value [3] does the source give for `CC[C@H]1CN2CCc3cc(OC)c(OC)cc3[C@@H]2C[C@@H]1C[C@H]1NCCc2cc(OC)c(OC)cc21` [Emetine] here?
Answer: active

Question: How did the “reduction of cell surface PrP” value [3] turn out when `CC[C@@]1([C@@H]2O[C@@H]([C@H]3O[C@@](O)(CO)[C@H](C)C[C@@H]3C)C[C@@H]2C)CC[C@H]([C@]2(C)CC[C@]3(C[C@H](O)[C@@H](C)[C@@H]([C@@H](C)[C@@H](OC)[C@H](C)C(=O)O)O3)O2)O1` [Monensin] was run?
Answer: active

Question: Which results are given for `COc1ccc(CCN2CCC(Nc3nc4ccccc4n3Cc3ccc(F)cc3)CC2)cc1` [Astemizole]?
Answer: reduction of cell surface PrP, confirmation by secondary screening [3]: confirmed; also recorded: active; rebound of infectivity after treatment cessation (RML) (RML prions): no rebound of infectivity; infection of PK1 neuroblastoma cells by RML prions (PrPSc western blot) (RML prions): block infection; rebound of infectivity after treatment cessation (22L) (22L prions): no rebound of infectivity; infection of PK1 neuroblastoma cells by 22L prions (PrPSc western blot) (22L prions): block infection

Question: For `CCCCCCCCCCCCCCCC[N+](C)(C)C` [cetrimonium], which “reduction of cell surface PrP” value [3] is on record?
Answer: active

Question: What does the source list for `C=CC[C@@H]1/C=C(\C)C[C@H](C)C[C@H](OC)[C@H]2O[C@@](O)(C(=O)C(=O)N3CCCC[C@H]3C(=O)O[C@H](/C(C)=C/[C@@H]3CC[C@@H](O)[C@H](OC)C3)[C@H](C)[C@@H](O)CC1=O)[C@H](C)C[C@@H]2OC` [Tacrolimus]?
Answer: reduction of cell surface PrP, confirmation by secondary screening [3]: confirmed; reduction of PrP in the secondary assay, IN Cell analyzer quantification ([3]; at 30 (unit not given)): 73%; reduction of PrP in the secondary assay, flow cytometry ([3]; at 30 (unit not given)): 75%; rebound of infectivity after treatment cessation (RML) (RML prions): no rebound of infectivity; infection of PK1 neuroblastoma cells by RML prions (PrPSc western blot) (RML prions): block infection; reduction of PrP expression in the primary assay ([1]; 20 μM): 70%; rebound of infectivity after treatment cessation (22L) (22L prions): no rebound of infectivity; infection of PK1 neuroblastoma cells by 22L prions (PrPSc western blot) (22L prions): block infection
